The CheMixHub viscosity set

Assay: xn = mol fraction of the nth substance listed

CCCCCCCCCCCCCC[P+](CCCCCC)(CCCCCC)CCCCCC.c1nnc[n-]1 + CCCCCCn1cc[n+](C)c1.O=S(=O)([N-]S(=O)(=O)C(F)(F)F)C(F)(F)F
viscosity [mPa·s], 100 kPa
Details | x1 = 0.107 | x1 = 0.208 | x1 = 0.307 | x1 = 0.4 | x1 = 0.507 | x1 = 0.622 | x1 = 0.718 | x1 = 0.805 | x1 = 0.9
293.15 K | 132 | 220 | 308 | 452 | 677 | 901 | 1162 | 1349 | 1458
298.15 K | 103 | 165 | 227 | 329 | 485 | 633 | 811 | 932 | 1013
303.15 K | 81 | 127 | 171 | 245 | 355 | 456 | 579 | 664 | 720
308.15 K | 65 | 99 | 132 | 186 | 267 | 337 | 422 | 484 | 524
313.15 K | 54 | 79 | 104 | 145 | 204 | 253 | 314 | 359 | 389
318.15 K | – | 64 | 83 | 115 | 159 | 194 | 239 | 273 | 296
323.15 K | – | 53 | 67 | 93 | 127 | 152 | 185 | 211 | 229

CC(=O)CC(C)C + CCCCCO
viscosity [mPa·s]
Details | x1 = 0.1011 | x1 = 0.1974 | x1 = 0.304 | x1 = 0.4023 | x1 = 0.5022 | x1 = 0.6064 | x1 = 0.7079 | x1 = 0.7955 | x1 = 0.8962
298.15 K, 101 kPa | 2.47 | 1.89 | 1.46 | 1.2 | 1 | 0.856 | 0.738 | 0.668 | 0.592
298.15 K, 101.3 kPa | 2.47 | 1.89 | 1.46 | 1.2 | 1 | 0.856 | 0.738 | 0.668 | 0.592
303.15 K, 101.3 kPa | 2.2 | 1.7 | 1.32 | 1.1 | 0.919 | 0.792 | 0.694 | 0.624 | 0.558
308.15 K, 101.3 kPa | 1.96 | 1.53 | 1.2 | 1.01 | 0.846 | 0.735 | 0.646 | 0.589 | 0.53
313.15 K, 101.3 kPa | 1.75 | 1.38 | 1.09 | 0.915 | 0.781 | 0.683 | 0.601 | 0.555 | 0.501

O=C1CCCCC1 + CCCCCO
303.15 K, 101 kPa
Details | viscosity [mPa·s]
x1 = 0.1012 | 2.388
x1 = 0.2586 | 1.983
x1 = 0.4201 | 1.737
x1 = 0.5809 | 1.622
x1 = 0.7407 | 1.565

CC=Cc1ccc2c(c1)OCO2 + CCCCCOC(C)=O
Details | viscosity [mPa·s]
298.15 K, 101 kPa, x1 = 0.137 | 0.958

CC(=O)CC(C)C + CCCCN(CCCC)CCCC
viscosity [mPa·s], 101 kPa
Details | 298.15 K | 303.15 K | 308.15 K
x2 = 0.0501 | 0.564 | 0.53 | 0.499
x2 = 0.1 | 0.593 | 0.556 | 0.524
x2 = 0.1499 | 0.622 | 0.582 | 0.549
x2 = 0.2004 | 0.653 | 0.609 | 0.576
x2 = 0.25 | 0.685 | 0.638 | 0.601
x2 = 0.3017 | 0.719 | 0.668 | 0.628
x2 = 0.4004 | 0.786 | 0.727 | 0.681
x2 = 0.4999 | 0.856 | 0.788 | 0.737
x2 = 0.6004 | 0.928 | 0.855 | 0.796
x2 = 0.6962 | 1.002 | 0.922 | 0.855
x2 = 0.8004 | 1.087 | 0.998 | 0.922
x2 = 0.8496 | 1.129 | 1.033 | 0.954
x2 = 0.8997 | 1.171 | 1.07 | 0.988
x2 = 0.9499 | 1.22 | 1.114 | 1.023

CC(=O)CC(C)C + CCCCO
101 kPa
Details | viscosity [mPa·s]
303.15 K, x2 = 0.1311 | 0.542
303.15 K, x2 = 0.2531 | 0.592
303.15 K, x2 = 0.367 | 0.653
303.15 K, x2 = 0.4745 | 0.748
303.15 K, x2 = 0.5795 | 0.862
303.15 K, x2 = 0.6729 | 0.997
303.15 K, x2 = 0.7627 | 1.185
303.15 K, x2 = 0.8465 | 1.42
303.15 K, x2 = 0.9254 | 1.728
313.15 K, x2 = 0.1311 | 0.482
313.15 K, x2 = 0.2533 | 0.526
313.15 K, x2 = 0.3677 | 0.578
313.15 K, x2 = 0.4745 | 0.647
313.15 K, x2 = 0.5754 | 0.733
313.15 K, x2 = 0.6704 | 0.844
313.15 K, x2 = 0.7604 | 0.98
313.15 K, x2 = 0.9236 | 1.43
323.15 K, x2 = 0.1319 | 0.428
323.15 K, x2 = 0.2542 | 0.464
323.15 K, x2 = 0.3688 | 0.507
323.15 K, x2 = 0.4759 | 0.565
323.15 K, x2 = 0.5759 | 0.621
323.15 K, x2 = 0.6721 | 0.707
323.15 K, x2 = 0.7597 | 0.801
323.15 K, x2 = 0.8452 | 0.937
323.15 K, x2 = 0.9386 | 1.136

CCCCCCO + CCCCO
Details | viscosity [mPa·s]
294.55 K, 100 kPa, x2 = 0.31 | 3.994

O=C1CCCCC1 + CCCCO
101 kPa
Details | viscosity [mPa·s]
298.15 K, x1 = 0.0997 | 2.13
298.15 K, x1 = 0.2002 | 1.87
298.15 K, x1 = 0.3022 | 1.73
298.15 K, x1 = 0.3878 | 1.66
298.15 K, x1 = 0.5036 | 1.63
298.15 K, x1 = 0.6016 | 1.64
298.15 K, x1 = 0.6966 | 1.67
298.15 K, x1 = 0.7992 | 1.74
298.15 K, x1 = 0.8984 | 1.82
303.15 K, x1 = 0.1001 | 1.855
303.15 K, x1 = 0.2591 | 1.662
303.15 K, x1 = 0.4202 | 1.556
303.15 K, x1 = 0.5804 | 1.517
303.15 K, x1 = 0.7265 | 1.534
303.15 K, x1 = 0.8935 | 1.622
